Test results: ChEMBL document CHEMBL1130859, “Inhibitors of the bacterial cell wall biosynthesis enzyme MurD” (Bioorg Med Chem Lett, 1998)

test: Compound was tested for inhibition against UDP-N-acetylmuramoyl-L-alanyl-D-glutamate synthetase isolated from Escherichia coli

Compound	IC50
CC(=O)NC1C(OP(=O)(O)OP(=O)(O)OC[C@H]2OC(n3cc(I)c(=O)[nH]c3=O)[C@H](O)[C@@H]2O)OC(CO)C(O)C1O[C@H](C)C(=O)N[C@@H](C)P(=O)(O)CC(CCC(=O)O)C(=O)O (some centres not stated) [17]	4 nM

test: Compound was tested for inhibition against UDP-N-acetylmuramoyl-L-alanyl-D-glutamate synthetase; design: species or system Escherichia coli

Compound	IC50
CC(NC(=O)CCCCCOP(=O)(O)O)P(=O)(O)CC(CCC(=O)O)C(=O)O (configuration not stated)	29000 nM
CC(=O)NC1C(O)OC(CO)C(O)C1O[C@H](C)C(=O)N[C@@H](C)P(=O)(O)CC(CCC(=O)O)C(=O)O (some centres not stated)	782000 nM
CC(=O)NC1C(OP(=O)(O)O)OC2COC(c3ccccc3)OC2C1O[C@H](C)C(=O)N[C@@H](C)P(=O)(O)CC(CCC(=O)O)C(=O)O (some centres not stated)	455 nM
CC(NC(=O)CCCCCOP(=O)(O)OP(=O)(O)OC[C@H]1O[C@@H](n2ccc(=O)[nH]c2=O)[C@H](O)[C@@H]1O)P(=O)(O)CC(CCC(=O)O)C(=O)O (some centres not stated)	680 nM

Further lines, results first:

IC50	Compound
20 nM	CC(=O)NC1C(OP(=O)(O)O)OC(CO)C(O)C1O[C@H](C)C(=O)N[C@@H](C)P(=O)(O)CC(CCC(=O)O)C(=O)O (some centres not stated)
< 1 nM	CC(=O)NC1C(OP(=O)(O)OP(=O)(O)OC[C@H]2OC(n3ccc(=O)[nH]c3=O)[C@H](O)[C@@H]2O)OC(CO)C(O)C1O[C@H](C)C(=O)N[C@@H](C)P(=O)(O)CC(CCC(=O)O)C(=O)O (some centres not stated)
